Laboratory results reported in PubChem BioAssay AID248 (DTP/NCI, 2004).
Values joined by “and” are separate entries in the source; they are usually repeats but may differ in a detail not shown here. Equal entries are not always repeated. Inconclusive results and toxic doses are left out. Square brackets hold non-standard residues; d marks the D form. Peptide text beside a SMILES is read from it. ξ: configuration not given here. ξF = NC(Cc1ccccc1)C(=O)O

Tested on: L1210 leukemia ip in BDF1 mice, survival T/C
Experiment: NCI In Vivo Anticancer Drug Screen. Data for tumor model L1210 Leukemia (intraperitoneal) in B6D2F1 (BDF1) mice
Conditions: endpoint: mean survival time, higher = longer survival
Method in brief: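 Tumor was transplanted into mice, which were then dosed with test compound or vehicle alone. Survival was recorded for each group, and the treated figure was expressed relative to the control figure.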

[1] = dose: 12.5 mg/kg/injection, schedule: Q01DX009 (ip), vehicle: saline
[2] = dose: 12.5 mg/kg/injection, schedule: Q04DX003 (ip), vehicle: saline
[3] = dose: 25.0 mg/kg/injection, schedule: Q01DX009 (ip), vehicle: saline
[4] = dose: 25.0 mg/kg/injection, schedule: Q04DX003 (ip), vehicle: saline
[5] = dose: 50.0 mg/kg/injection, schedule: Q01DX009 (ip), vehicle: saline
[6] = dose: 50.0 mg/kg/injection, schedule: Q04DX003 (ip), vehicle: saline
[7] = dose: 100.0 mg/kg/injection, schedule: Q01DX009 (ip), vehicle: saline
[8] = dose: 100.0 mg/kg/injection, schedule: Q04DX003 (ip), vehicle: saline
[9] = dose: 200.0 mg/kg/injection, schedule: Q01DX009 (ip), vehicle: saline
[10] = dose: 200.0 mg/kg/injection, schedule: Q04DX003 (ip), vehicle: saline
[11] = dose: 400.0 mg/kg/injection, schedule: Q01DX009 (ip), vehicle: saline
[12] = dose: 400.0 mg/kg/injection, schedule: Q04DX003 (ip), vehicle: saline
[13] = dose: 100.0 mg/kg/injection, schedule: Q04DX003 (ip), vehicle: Klucel (hydroxypropylcellulose) (HPC)
[14] = dose: 200.0 mg/kg/injection, schedule: Q04DX003 (ip), vehicle: Klucel (hydroxypropylcellulose) (HPC)
[15] = dose: 400.0 mg/kg/injection, schedule: Q04DX003 (ip), vehicle: Klucel (hydroxypropylcellulose) (HPC)
[16] = dose: 100.0 mg/kg/injection, schedule: Q01DX001 (ip), vehicle: saline
[17] = dose: 200.0 mg/kg/injection, schedule: Q01DX001 (ip), vehicle: saline
[18] = dose: 100.0 mg/kg/injection, schedule: Q04DX003 (ip), vehicle: saline with Tween-80
[19] = dose: 200.0 mg/kg/injection, schedule: Q04DX003 (ip), vehicle: saline with Tween-80
[20] = dose: 5.0 mg/kg/injection, schedule: Q01DX001 (ip), vehicle: saline
[21] = dose: 10.0 mg/kg/injection, schedule: Q01DX001 (ip), vehicle: saline
[22] = dose: 20.0 mg/kg/injection, schedule: Q01DX001 (ip), vehicle: saline
[23] = dose: 40.0 mg/kg/injection, schedule: Q01DX001 (ip), vehicle: saline
[24] = dose: 400.0 mg/kg/injection, schedule: Q01DX001 (ip), vehicle: saline

O=C(OCCN1C(=O)c2cccc3c(Br)ccc(c23)C1=O)OCc1ccccc1
T/C (dose: 100.0 mg/kg/injection, schedule: Q04DX002 (ip), vehicle: alcohol): 103 % of control | T/C (dose: 200.0 mg/kg/injection, schedule: Q04DX002 (ip), vehicle: alcohol): 100 % of control | T/C (dose: 400.0 mg/kg/injection, schedule: Q04DX002 (ip), vehicle: alcohol): 100 % of control

C=COC(=O)N1c2ccc(C)cc2C=CC1C#N (stereo unspecified)
T/C (dose: 100.0 mg/kg/injection, schedule: Q04DX003 (ip), vehicle: gum acacia): 92 % of control | T/C (dose: 200.0 mg/kg/injection, schedule: Q04DX003 (ip), vehicle: gum acacia): 102 % of control | T/C (dose: 400.0 mg/kg/injection, schedule: Q04DX003 (ip), vehicle: gum acacia): 86 % of control

CCCCCCCCN(N)C12CC3CC(CC(C3)C1)C2
T/C (dose: 6.25 mg/kg/injection, schedule: Q01DX009 (ip), vehicle: saline): 106 % of control | T/C [1]: 107 % of control | T/C [2]: 113 % of control | T/C [3]: 106 % of control | T/C [4]: 113 % of control | T/C [5]: 87 % of control | T/C [6]: 113 % of control

CC(CC(=O)c1ccc(F)cc1)N1CCN(c2ccccc2)CC1 (stereo unspecified)
T/C (dose: 100.0 mg/kg/injection, schedule: Q01DX001 (ip), vehicle: carboxymethylcellulose (CMC)): 103 % of control | T/C (dose: 200.0 mg/kg/injection, schedule: Q01DX001 (ip), vehicle: carboxymethylcellulose (CMC)): 90 % of control | T/C (dose: 400.0 mg/kg/injection, schedule: Q01DX001 (ip), vehicle: carboxymethylcellulose (CMC)): 90 % of control

CC/C(CC(C)CC)=N\O (stereo unspecified)
T/C [7]: 101 % of control | T/C [8]: 93 % of control | T/C [9]: 101 % of control | T/C [10]: 98 % of control | T/C [11]: 101 % of control | T/C [12]: 91 % of control

COC(=O)C1C(=O)C(C(=O)OC)C2C(C(=O)OC)C(=O)C(C(=O)OC)C12 (stereo unspecified)
T/C (dose: 100.0 mg/kg/injection, schedule: Q01DX001 (ip), vehicle: Klucel (hydroxypropylcellulose) (HPC)): 104 % of control | T/C (dose: 100.0 mg/kg/injection, schedule: Q01DX009 (ip), vehicle: Klucel (hydroxypropylcellulose) (HPC)): 93 % of control | T/C [13]: 97 % of control | T/C (dose: 200.0 mg/kg/injection, schedule: Q01DX001 (ip), vehicle: Klucel (hydroxypropylcellulose) (HPC)): 101 % of control | T/C (dose: 200.0 mg/kg/injection, schedule: Q01DX009 (ip), vehicle: Klucel (hydroxypropylcellulose) (HPC)): 95 % of control | T/C [14]: 96 % of control | T/C (dose: 400.0 mg/kg/injection, schedule: Q01DX001 (ip), vehicle: Klucel (hydroxypropylcellulose) (HPC)): 103 % of control | T/C (dose: 400.0 mg/kg/injection, schedule: Q01DX009 (ip), vehicle: Klucel (hydroxypropylcellulose) (HPC)): 98 % of control | T/C [15]: 102 % of control

O=C(Nc1cccc([N+](=O)[O-])c1)Nc1ccccc1Cl
T/C (dose: 100.0 mg/kg/injection, schedule: Q04DX002 (ip), vehicle: saline + alcohol): 88 % of control | T/C (dose: 200.0 mg/kg/injection, schedule: Q04DX002 (ip), vehicle: saline + alcohol): 88 % of control | T/C (dose: 400.0 mg/kg/injection, schedule: Q04DX002 (ip), vehicle: saline + alcohol): 88 % of control

NC(Cc1ccccc1)C(=O)NCC(=O)O (stereo unspecified) (H-[ξF]-Gly-OH)
T/C [7]: 105 % of control | T/C [8]: 98 % of control | T/C [9]: 105 % of control | T/C [10]: 97 % of control | T/C [11]: 102 % of control | T/C [12]: 97 % of control

O=S(=O)(F)c1ccc(-c2cc(Cl)c3cc(F)ccc3n2)cc1
T/C [13]: 105 % of control | T/C [14]: 106 % of control | T/C [15]: 106 % of control

CCCCN(CCCC)N=Nc1c[nH]c(=O)[nH]c1=O
T/C (dose: 8.0 mg/kg/injection, schedule: Q01DX Z (ip), vehicle: carboxymethylcellulose (CMC)): 114 % of control | T/C (dose: 16.0 mg/kg/injection, schedule: Q01DX Z (ip), vehicle: carboxymethylcellulose (CMC)): 109 % of control

COc1cc(OC)c(/C=C/c2c3ccccc3cc[n+]2C)c(OC)c1
T/C (dose: 0.78 mg/kg/injection, schedule: Q01DX009 (ip), vehicle: saline with Tween-80): 100 % of control | T/C (dose: 1.56 mg/kg/injection, schedule: Q01DX009 (ip), vehicle: saline with Tween-80): 97 % of control

CCN(CC)C(=S)[S][Sn]([Cl])([c]1ccccc1)[c]1ccccc1
T/C (dose: 5.0 mg/kg/injection, schedule: Q01DX001 (ip), vehicle: other): 102 % of control | T/C (dose: 10.0 mg/kg/injection, schedule: Q01DX001 (ip), vehicle: other): 104 % of control | T/C (dose: 20.0 mg/kg/injection, schedule: Q01DX001 (ip), vehicle: other): 102 % of control | T/C (dose: 40.0 mg/kg/injection, schedule: Q01DX001 (ip), vehicle: other): 102 % of control | T/C (dose: 80.0 mg/kg/injection, schedule: Q01DX001 (ip), vehicle: other): 104 % of control

CC(CN)NCc1ccccc1 (stereo unspecified)
T/C [7]: 96 % of control | T/C [8]: 103 % of control | T/C [9]: 94 % of control | T/C [10]: 103 % of control | T/C [12]: 95 % of control

CC1=C2CCC(C)CC23C2C(=O)OC(=O)C2C1C1C(=O)OC(=O)C13 (stereo unspecified)
T/C [3]: 100 % of control | T/C [6]: 101 % of control | T/C [16]: 93 % of control | T/C [8]: 90 % of control | T/C [17]: 108 % of control

O=C(Nc1cccc2ccccc12)C(Cl)Cl
T/C (dose: 100.0 mg/kg/injection, schedule: Q04DX002 (ip), vehicle: Klucel (hydroxypropylcellulose) (HPC)): 100 % of control | T/C (dose: 200.0 mg/kg/injection, schedule: Q04DX002 (ip), vehicle: Klucel (hydroxypropylcellulose) (HPC)): 93 % of control | T/C (dose: 400.0 mg/kg/injection, schedule: Q04DX002 (ip), vehicle: Klucel (hydroxypropylcellulose) (HPC)): 93 % of control

N/C(=N\O)c1ccc2ccc3cccnc3c2n1
T/C [18]: 102 % of control | T/C [19]: 87 % of control

c1nc(SC2=NCCN2)c2[nH]cnc2n1
T/C (dose: 2.62 mg/kg/injection, schedule: Q01DX Z (ip), vehicle: saline): 116 % of control | T/C [20]: 100 % of control | T/C (dose: 5.25 mg/kg/injection, schedule: Q01DX Z (ip), vehicle: saline): 118 % of control | T/C (dose: 5.25 mg/kg/injection, schedule: Q01DX Z (oral), vehicle: saline): 114 % of control | T/C [21]: 105 % of control | T/C (dose: 10.5 mg/kg/injection, schedule: Q01DX Z (oral), vehicle: saline): 114 % of control | T/C [1]: 115 % of control | T/C [2]: 109 % of control | T/C [22]: 103 % of control | T/C (dose: 22.0 mg/kg/injection, schedule: Q04DX003 (ip), vehicle: saline): 106 % of control | T/C [3]: 118 % of control | T/C [4]: 117 % of control | T/C (dose: 33.0 mg/kg/injection, schedule: Q04DX003 (ip), vehicle: saline): 114 % of control and 116 % of control | T/C [23]: 108 % of control | T/C (dose: 42.0 mg/kg/injection, schedule: Q01DX Z (ip), vehicle: saline): 156 % of control | T/C [5]: 150 % of control and 178 % of control | T/C [6]: 115 % of control and 118 % of control | T/C (dose: 168.0 mg/kg/injection, schedule: Q01DX Z (oral), vehicle: saline): 87 % of control

CC(=O)Nc1ncnc2c(C3OC(COC(C)=O)C(OC(C)=O)C3OC(C)=O)[nH]nc12 (stereo unspecified)
T/C [16]: 100 % of control | T/C [17]: 97 % of control | T/C [24]: 100 % of control

O=c1[nH]cc(Nc2ccccc2)c(=O)[nH]1
T/C [13]: 95 % of control | T/C [14]: 92 % of control | T/C [15]: 88 % of control

[B-][NH2+]c1ccc([NH2+][B-])cc1
T/C [16]: 96 % of control | T/C [17]: 91 % of control | T/C [24]: 100 % of control

ClCCN(CCCl)CCCNc1cc(-c2ccc(Cl)cc2)nc2cc(Cl)ccc12
T/C [20]: 101 % of control | T/C [21]: 101 % of control | T/C [22]: 109 % of control | T/C [23]: 104 % of control | T/C (dose: 80.0 mg/kg/injection, schedule: Q01DX001 (ip), vehicle: saline): 92 % of control | T/C [17]: 106 % of control

CCCCOCC(=O)OCCCC
T/C [7]: 103 % of control | T/C [18]: 93 % of control | T/C [9]: 105 % of control | T/C [19]: 94 % of control | T/C [11]: 87 % of control | T/C (dose: 400.0 mg/kg/injection, schedule: Q04DX003 (ip), vehicle: saline with Tween-80): 93 % of control
